One series relates to wild type CHO cells. Kind of series: Effect of CLF on substrate uptake in wild type CHO cells. The series is classed as cell-based. The method, then:
For all transport experiments, cells grown on 3 cm culture dishes were cultured for 24 hours in media supplemented with 5 mmol/L sodium-butyrate to increase expression levels of transfected transporters [Palermo D P et al., J Biotechnol 1991 June; 19(1):35-47]. • Transport experiments with uptake of radioactively labeled substrates: These experiments were performed as described by Huber R D et al. [Am J Physiol Cell Physiol 2007 February; 292(2):C795-C806]. • Transport experiments with uptake of CLF: Uptake was performed in the same buffers as for the radioactive substrates above. For visualization of CLF uptake, cells were immediately inspected with a Leica-DM-IRBE-inverted-microcope (Leica-Microsystems, Wetzlar, Germany) equipped with a Hamamatsu-ORKA-ER-camera (Hamamatsu-Photonoics, Japan). To determine uptake of CLF, cells were solubilized by the addition of 2 ml 1% (w/v) Triton-X-100. After complete solubilization, 1.5 ml was used to measure fluorescence in a Perkin-Elmer LS-5 luminescence-spectrometer set at λexe 486 nm (slit 10 nm) and λem 520 nm (slit 5 nm). Protein was determined with the bicinchoninic acid method using a kit from Interchim (Montfuçon, France). Transport data from OATP expressing cell lines were corrected for binding by subtracting 0 min time points (blank values) and except for FIGS. 2B and 2C were normalized per minute. […]

A short description of series [1]: Biliary secretion study of CLF in wild type, Abcc2-/- and Abcc3-/- mice. The series is classed as in vivo. To be noted: FVB, mouse, blood, intravenous, 100 μL of 1 mmol/L CLF, 120 minutes after administration, read-out: blood levels of CLF. The protocol:
(§1) Mice received 100 μL of 1 mmol/L CLF by injection in the tail vein. Data represent means±SD. Plasma levels are expressed in nmol/L and levels in urine, liver and bile as percentage of administered dose. Significance was tested using two-sided Student's t-test: *P<0.05 for Abcc2^-/- vs wild type mice. Data represent means±SD. Abcc2^-/- mice (against a Friend virus B-type (FVB) background) were bred at the National Cancer Institute (Amsterdam, The Netherlands). Production and characterization of the Abcc2^-/- mice was as described by […] et al. [J Pharmacol Exp Ther 2006 July; 318(1):319-327]. Wild type and Abcc3^-/- mice (against an FVB background) were bred at the animal institute of the Academic Medical Center. Production and characterization of the Abcc3^-/- mice was as described by Zelcer et al. [J Hepatol 2006 April; 44(4):768-775]. For biliary secretion studies, the gall bladder was cannulated with PE10 polyethylene tubing and 100 μL (1 mmol/L) CLF was injected in the tail vein. Bile was collected in 10 minutes fractions; liver and blood were harvested at the end of the experiment. Homogenised livers were deproteinised by adding 2 volumes of MeOH, and bile and blood samples were diluted with 0.1% Triton-X-100. The amount CLF was quantitated by measurement of fluorescence as described above.

In another series the test system is Abcc2 and Abcc3. The series is described as above. The settings on record: for cumulative biliary excretion of CLF / hepatic retention of CLF: 120 minutes after administration. The series is classed as in vivo. The protocol:
as §1

The target in a further series is T1, OATP1B3 (Homo sapiens, UniProt Q9NPD5).
T1 construct: expressed in transfected cells; host or cells: CHO cells (stably transfected; Treiber et al. 2007)
T1 sequence (Q9NPD5 1-702): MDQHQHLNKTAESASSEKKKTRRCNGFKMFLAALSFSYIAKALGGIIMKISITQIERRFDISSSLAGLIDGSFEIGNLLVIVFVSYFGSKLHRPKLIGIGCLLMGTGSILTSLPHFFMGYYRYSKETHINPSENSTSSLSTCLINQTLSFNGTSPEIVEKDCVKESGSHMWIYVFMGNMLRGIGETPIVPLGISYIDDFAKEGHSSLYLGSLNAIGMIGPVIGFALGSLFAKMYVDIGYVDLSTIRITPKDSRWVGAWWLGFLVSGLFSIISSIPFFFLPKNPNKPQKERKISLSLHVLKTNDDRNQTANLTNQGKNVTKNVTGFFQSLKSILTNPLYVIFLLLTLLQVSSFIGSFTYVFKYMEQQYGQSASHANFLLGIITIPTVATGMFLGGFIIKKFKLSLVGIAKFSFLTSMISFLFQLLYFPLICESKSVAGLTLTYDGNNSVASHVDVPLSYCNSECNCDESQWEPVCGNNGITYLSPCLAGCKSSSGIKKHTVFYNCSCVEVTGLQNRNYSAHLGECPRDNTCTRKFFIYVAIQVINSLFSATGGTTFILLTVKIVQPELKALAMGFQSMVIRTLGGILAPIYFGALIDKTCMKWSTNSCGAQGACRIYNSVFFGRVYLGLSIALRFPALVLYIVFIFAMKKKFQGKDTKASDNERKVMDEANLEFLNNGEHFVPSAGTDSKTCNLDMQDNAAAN
The experiment in a line: Inhibition by CLF of TC transport in CHO cells expressing OATP1B3. To be noted: 0, 5 or 50 μmol/L CLF, 10 μmol/L TC. It counts as cell-based. The protocol:
FIGS. 3A-3D relate to inhibition of transport activity of hepatocellular uptake transporters by CLF. CHO cells expressing NTCP, OATP1B1, OATP1B3 and OATP2B1 were incubated with 0, 5 or 50 μmol/L CLF and with the substrates, 2.5 μmol/L TC, 1 μmol/L estrone-3-sulfate, 10 μmol/L TC and 1 μmol/L estrone-3-sulfate, respectively. Data represent means±SD of triplicate determinations.
For all transport experiments, cells grown on 3 cm culture dishes were cultured for 24 hours in media supplemented with 5 mmol/L sodium-butyrate to increase expression levels of transfected transporters [Palermo D P et al., J Biotechnol 1991 June; 19(1):35-47]. • Transport experiments with uptake of radioactively labeled substrates: These experiments were performed as described by Huber R D et al. [Am J Physiol Cell Physiol 2007 February; 292(2):C795-C806]. • Transport experiments with uptake of CLF: Uptake was performed in the same buffers as for the radioactive substrates above. […] After complete solubilization, 1.5 ml was used to measure fluorescence in a Perkin-Elmer LS-5 luminescence-spectrometer set at λexe 486 nm (slit 10 nm) and λem 520 nm (slit 5 nm). Protein was determined with the bicinchoninic acid method using a kit from Interchim (Montfuçon, France). […]

1 compound from US8318504B2, “MRP2 efflux pathway prognostic method” (priority 2009, dated 2012) can be followed below.

Where two headings read alike, the source gives them in different places.

Turning to `CC(CCC(=O)NC(CCCCNC(=S)Nc1ccc(-c2c3ccc(=O)cc-3oc3cc(O)ccc23)c(C(=O)O)c1)C(=O)O)C1CCC2C3C(O)CC4CC(O)CCC4(C)C3CC(O)C12C` (stereo not drawn) [CLF, cholyl lysyl fluorescein], the “influence of CLF on substrate uptake in wild type cells” value in the series on wild type CHO cells is “no influence on substrate uptake”. Besides, the concentration at 120 min was 1310 ± 749 nM in series [1] (Abcc2-/- mice) and 83 ± 21 nM in series [1] (wt mice). Moreover, the “biliary output of CLF in Abcc3-/- mice in comparison with wild type mice” value with Abcc2 and Abcc3 (100 μL 1 mmol/L CLF in the tail vein) is reported as “not affected”. The “CLF dose excreted into bile within 20 minutes” value was “less than 2%” with Abcc2 and Abcc3 (Abcc2-/- mice, 100 μL 1 mmol/L CLF in the tail vein); about 70% with Abcc2 and Abcc3 (wild type mice, 100 μL 1 mmol/L CLF in the tail vein). The “cumulative biliary excretion of CLF” value in the series on Abcc2 and Abcc3 (Abcc2-/- mice) was 32 % of the administered dose; in the series on Abcc2 and Abcc3 (wild type mice) it was 85 % of the administered dose. For the same compound, the “hepatic retention of CLF” value was 64 % of the administered dose in the series with Abcc2 and Abcc3 (Abcc2-/- mice); 1 % of the administered dose with Abcc2 and Abcc3 (wt mice). Moreover, the “plasma and liver CLF contents in Abcc3-/- mice in comparison with wild type mice” value in the series with Abcc2 and Abcc3 (after 2 hours) is on record as “no differences”. Further, the “inhibition of transport of TC mediated by OATP1B3 by CLF” value at OATP1B3 is “inhibited by CLF in a dose-dependent manner”.
